Among the data in patent US20020197261A1, “Therapeutic agent/ligand conjugate compositions, their methods of synthesis and use” (priority 2001, published 2002) are IC50 values, retold here.

For the experiment, the system named is A431 cells. Kind of experiment: MTT cytotoxicity, 6-hour pretreatment system. Format: cell-based. The following applies: Homo sapiens, A-431, read-out: IC50 (50% growth inhibition), 6 hours exposure, washing, additional 72 hours incubation.

Method: One hundred microliter of growth medium suspending 1000-2000 cells per well was plated out in 96-well plates and incubated for 2 days to allow the cells to attach. Various dilutions of the drug or conjugates were added to each well and the plates were incubated for 72 hours at 37° C. Alternatively, a 6-hour pretreatment protocol was used. Cells were exposed to various concentrations of the drug or conjugate for 6 hours at 37 ° C., and then washed twice with the fresh culture medium. The cells were incubated for additional 72 hours. At the end of the incubation period, twenty microliters of MTT solution from Promega Cell Proliferation Assay kit (Madison, Wis.) were added to the wells. The microplates were then incubated for 1 hour at 37° C. Absorbance was measured at 490 nm using a microplate reader (Molecular Devices Corp, Sunnyvale, Calif.). The data reported represent the means of quadruplicate measurement and the standard errors of the mean were less than 15%.

As for `COc1cccc2c1C(=O)c1c(O)c3c(c(O)c1C2=O)C[C@@](O)(C(=O)CO)C[C@@H]3O[C@H]1C[C@H](N)[C@H](O)[C@H](C)O1` [Adr, Adriamycin], the IC50 came out at 17.7 µM.
